Test results reported in patent US20210308188A1, “CELL CLUSTER INCLUDING OLFACTORY NEURON OR PRECURSOR CELL THEREOF, AND METHOD FOR PRODUCING SAME” (SUMITOMO CHEMICAL COMPANY, LIMITED, priority 2018, published 2021).

Experiments:
[1] = test system: human iPS cell line HC-6 #10; assay: Maturation culture of cell clusters in viscous medium (Experiment 16); type: cell-based; settings: IGF-1 20 ng/ml, 10% fetal bovine serum and EC23 100 nM added together to the culture medium; day 45
Protocol: Cell clusters were maturation-cultured in a viscous medium in accordance with the method shown in the upper section of FIG. 30. The viscous medium was prepared with reference to Japanese Patent No. 6176770. Specifically, 3 g of methylcellulose (manufactured by Sigma. Aldrich, Inc., viscosity: 4000 cP, M0512) was weighed, and sterilized by autoclaving in a 500 ml wide-open medium bottle containing an agitator, and then 100 ml of medium was added thereto. As the medium, a 1:1 in volume mixture of F-12+Glutamax medium and IMDM+Glutamax medium supplemented with 5% Knockout Serum Replacement, 10% fetal bovine serum (manufactured by Biosera), 450 μM 1-monothioglycerol, lx Chemically defined lipid concentrate, 50 unit/ml penicillin-50 μg/ml streptomycin, 20 ng/ml FGF-TS, 20 ng/ml EGF, 20 ng/ml IGF-1 (manufactured by R&D Systems), 10 μg/ml Heparin Sodium, 1 μM SB431542, 1 μM K02288, 300 nM CHIR99021, and 100 nM EC23 (retinoic acid signaling pathway-activating substance) was used. The medium bottle containing methylcellulose supplemented with the medium was stirred in a cryogenic chamber overnight using a stirrer corresponding to a high viscosity liquid (manufactured by Asahi Rika Factory. Ltd, AMG-H). […]

[2] = test system: human iPS cell line HC-6 #10; assay: Effect of TAK1 inhibitor in cell cluster production (Experiment 15); type: cell-based; settings: 5z-7-oxozeaenol 2 μM from day 3 (step (3)); day 21
Protocol: Human iPS cells (HC-6 #10 cell line, obtained from the Institute of Physical and Chemical Research) were subjected to maintenance culturing and step (a) in the same manner as in Experiment 1. The suspension culturing was started on a 96-well culture plate in the same manner as in Experiment 1, except that the number of cells per well was 9×10^3 cells.
At the start of suspension culturing (day 0 after the start of suspension culturing, start of step (1)), Y27632 (final concentration 20 μM), IWP-2 (final concentration 2 μM), SB-431542 (final concentration 1 μM) and CHIR99021 (final concentration 300 nM) were added to the serum-free medium.
On day 2 after the start of suspension culturing, a serum-free medium being free of Y27632 and containing SB-431542, BMP4, IWP-2 and CHIR99021 was added at 100 μl per well (start of step (2)). BMP4 was added to the medium at 3 nM to be a final concentration in the well of 1.5 nM.
On day 3 after the start of suspension culturing, the medium was half exchanged with a serum-free medium being free of Y27632 and BMP4 and containing IWP-2, SB-431542, FGF2, Heparin Sodium, and CHIR99021. In addition, a TAK1 inhibitor 5z-7-oxozeaenol (manufactured by Cayman Chemical) was added to the medium at 4 μM to be a final concentration in the well of 2 μM (start of step (3a)). […]

Compound | maintenance of olfactory epithelial-like tissues [1] | formation of olfactory epithelium-like tissues on the surface of the cell cluster versus cell cluster produced without the TAK1 inhibitor [2]
CC1(C)CCC(C)(C)c2cc(C#Cc3ccc(C(=O)O)cc3)ccc21 | could further efficiently maintain olfactory epithelial-like tissues | –
COc1cc(O)c2c(c1)/C=C/C[C@H](O)[C@H](O)C(=O)/C=C\C[C@H](C)OC2=O [TAK1 inhibitor, (3S,5Z,8S,9S,11E)-3,4,9,10-tetrahydro-8,9,16-tri hydroxy-14-methoxy-3-methyl-1H-2-benzoxacyclotetradecin-1,7(8H)-dione] | – | more efficient formation of olfactory epithelium-like tissues
IGF: 20 ng/ml IGF-1 (manufactured by R&D Systems) in the viscous medium | could further efficiently maintain olfactory epithelial-like tissues | –
